Values quoted from earlier work in PMC7933317 (Probiotics and antimicrobial proteins, 2021).

Test system: human red blood cells (RBCs)
Conditions: over the same concentration range; ref [30]

In the case of ALWKKLLKKLLKSAKKLG [C18G], the “hemolysis of human RBCs” value is listed as under 10%.
